Experimental data from ChEMBL document CHEMBL1201862, “PubChem BioAssay data set” (2004).
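Dose response: 5 concentrations. Exposure: 48 h. Format: 96-well plates. Endpoint: linear interpolation; highest concentration if not reached. GI50 is the concentration that inhibits growth by half.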 The source made the active and inactive calls. No stated cut-off is given here; in the data, active = GI50 up to about 1.1 µM and inactive = higher.

How the values were obtained:
Test in all cases: NCI anticancer screen, dose series, 48 h
786-0 = test system: 786-0
A498 = test system: A498
CAKI-1 = test system: CAKI-1
DMS-273 = test system: DMS-273
EKVX = test system: EKVX
HCT-15 = test system: HCT-15
HOP-92 = test system: HOP-92
K562 = test system: K562
MOLT-4 = test system: MOLT-4
Malme-3M = test system: Malme-3M
NCI-H23 = test system: NCI-H23
OVCAR-8 = test system: OVCAR-8
SF-268 = test system: SF-268
SF-295 = test system: SF-295
SK-MEL-28 = test system: SK-MEL-28
SK-OV-3 = test system: SK-OV-3
NCI-H226 = test system: NCI-H226
Hs-578T = test system: Hs-578T
MDA-MB-231 = test system: MDA-MB-231
PC-3 = test system: PC-3

Structure (SMILES)	GI50 (786-0)	GI50 (A498)	GI50 (CAKI-1)	GI50 (DMS-273)	GI50 (EKVX)	GI50 (HCT-15) [µM]	GI50 (HOP-92)	GI50 (K562)	GI50 (MOLT-4)	GI50 (Malme-3M)	GI50 (NCI-H23)	GI50 (OVCAR-8)	GI50 (SF-268)	GI50 (SF-295)	GI50 (SK-MEL-28)	GI50 (SK-OV-3)	GI50 (NCI-H226)	GI50 (Hs-578T)	GI50 (MDA-MB-231)	GI50 (PC-3)
CCCCCCCCCOC(=S)NC	18.2 µM (inactive)	20.1 µM (inactive)	20.7 µM (inactive)	18.3 µM (inactive)	28.1 µM (inactive)	18.7	18.2 µM (inactive)	21.8 µM (inactive)	17.1 µM (inactive)	20.6 µM (inactive)	16.7 µM (inactive)	18.8 µM (inactive)	19.5 µM (inactive)	27.8 µM (inactive)	22.3 µM (inactive)	24.5 µM (inactive)				
CCCCNC(=S)OCCC(C)CCCC(C)C (centres undefined)	> 100 µM (inactive)	> 100 µM (inactive)	> 100 µM (inactive)	> 100 µM (inactive)	> 100 µM (inactive)	> 100		> 100 µM (inactive)	> 100 µM (inactive)	> 100 µM (inactive)	> 100 µM (inactive)	> 100 µM (inactive)	> 100 µM (inactive)	> 100 µM (inactive)	87.9 µM (inactive)	> 100 µM (inactive)				
Cc1cc(Cl)ccc1NC(=O)C(=O)Cc1nc2ccc(C(=O)c3ccccc3)cc2nc1O	> 100 µM (inactive)		> 100 µM (inactive)	49.2 µM (inactive)	> 100 µM (inactive)	> 100	20.4 µM (inactive)		46.8 µM (inactive)	> 100 µM (inactive)	> 100 µM (inactive)	> 100 µM (inactive)	> 100 µM (inactive)	95.1 µM (inactive)	> 100 µM (inactive)	> 100 µM (inactive)	64.7 µM (inactive)			
N=C(N)NCCCC(Nc1c2ccccc2[n+]([O-])c2ccccc12)C(=O)O (centres undefined)	67.5 µM (inactive)	> 100 µM (inactive)		40.5 µM (inactive)	96.6 µM (inactive)	36.8		27 µM (inactive)	37.8 µM (inactive)	39.4 µM (inactive)	34.6 µM (inactive)	31.6 µM (inactive)	56.4 µM (inactive)	> 100 µM (inactive)	27.2 µM (inactive)	> 100 µM (inactive)	70.6 µM (inactive)			
CCN(CC)CC(=O)NC1c2ccccc2Oc2ccccc21	> 100 µM (inactive)			> 100 µM (inactive)	> 100 µM (inactive)	> 100		> 100 µM (inactive)	> 100 µM (inactive)		> 100 µM (inactive)	> 100 µM (inactive)	> 100 µM (inactive)		> 100 µM (inactive)	> 100 µM (inactive)	> 100 µM (inactive)			
N#CCCN(c1ccc(/C=C2\N=C(Cc3ccccc3)OC2=O)cc1)S(=O)(=O)c1ccccc1	> 100 µM (inactive)	> 100 µM (inactive)	> 100 µM (inactive)	> 100 µM (inactive)	> 100 µM (inactive)	> 100		> 100 µM (inactive)	> 100 µM (inactive)	> 100 µM (inactive)	> 100 µM (inactive)	> 100 µM (inactive)	> 100 µM (inactive)	> 100 µM (inactive)	> 100 µM (inactive)	> 100 µM (inactive)	> 100 µM (inactive)			
O=C(Nc1cc(Cl)ccc1Cl)c1cc2cccc(Br)c2oc1=O	> 100 µM (inactive)			> 100 µM (inactive)	> 100 µM (inactive)	> 100		> 100 µM (inactive)	> 100 µM (inactive)	> 100 µM (inactive)	> 100 µM (inactive)	57.1 µM (inactive)		63.4 µM (inactive)	> 100 µM (inactive)	> 100 µM (inactive)	> 100 µM (inactive)			
COc1ccc(-n2/c(=N/C(=S)N(C)C)ss/c2=N\C(=S)N(C)C)cc1	32.7 µM (inactive)	> 100 µM (inactive)	> 100 µM (inactive)	10.7 µM (inactive)	> 100 µM (inactive)	> 100		11.6 µM (inactive)	79.4 µM (inactive)	> 100 µM (inactive)	39.4 µM (inactive)	37 µM (inactive)	77.1 µM (inactive)	68.4 µM (inactive)	9.35 µM (inactive)	27.8 µM (inactive)	> 100 µM (inactive)			
CCn1cc(C(=O)O)c(=O)c2cc(F)c(N3CCN(CN4C(=O)/C(=N\c5ncc(Cc6cc(OC)c(OC)c(OC)c6)c(N)n5)c5cc(Cl)ccc54)CC3)cc21	> 100 µM (inactive)	> 100 µM (inactive)	> 100 µM (inactive)		> 100 µM (inactive)	91.6	> 100 µM (inactive)	15.9 µM (inactive)	0.38 µM (active)	> 100 µM (inactive)	> 100 µM (inactive)	> 100 µM (inactive)	> 100 µM (inactive)	> 100 µM (inactive)	> 100 µM (inactive)	> 100 µM (inactive)	> 100 µM (inactive)	> 100 µM (inactive)	> 100 µM (inactive)	> 100 µM (inactive)
COc1ccccc1C1c2cc3c(cc2OC2(OC)COC(=O)C12)OCO3 (centres undefined)	19.1 µM (inactive)	6.59 µM (inactive)	20 µM (inactive)		24.7 µM (inactive)	5.33	40.4 µM (inactive)	5.22 µM (inactive)	5.33 µM (inactive)	15.2 µM (inactive)	29.2 µM (inactive)	24.3 µM (inactive)	14.3 µM (inactive)	13.2 µM (inactive)	7.53 µM (inactive)	18.8 µM (inactive)	34.8 µM (inactive)	5.83 µM (inactive)	18.2 µM (inactive)	12 µM (inactive)
COC(=O)N/N=C/c1oc(-c2cccc([N+](=O)[O-])c2)c(-c2cccc([N+](=O)[O-])c2)c1[N+](=O)[O-]	> 100 µM (inactive)			> 100 µM (inactive)	> 100 µM (inactive)	> 100	49.3 µM (inactive)	26.5 µM (inactive)	24.2 µM (inactive)		> 100 µM (inactive)	> 100 µM (inactive)	> 100 µM (inactive)	> 100 µM (inactive)	> 100 µM (inactive)	> 100 µM (inactive)				
CN(C)CCCOC(=O)C(O)(Cc1ccccc1)C1CC1 (centres undefined)	> 100 µM (inactive)	> 100 µM (inactive)	> 100 µM (inactive)		> 100 µM (inactive)	> 100	> 100 µM (inactive)	> 100 µM (inactive)	> 100 µM (inactive)	> 100 µM (inactive)	> 100 µM (inactive)	> 100 µM (inactive)	> 100 µM (inactive)	> 100 µM (inactive)	> 100 µM (inactive)	> 100 µM (inactive)	> 100 µM (inactive)	> 100 µM (inactive)	> 100 µM (inactive)	> 100 µM (inactive)
O=C1c2ccccc2-c2c1c1ccccc1c(=O)n2-c1ccccc1	3.07 µM (inactive)	16.6 µM (inactive)	11.8 µM (inactive)		23.3 µM (inactive)	27.9	26.9 µM (inactive)	> 60.1 µM (inactive)	> 100 µM (inactive)	> 62.5 µM (inactive)	11.6 µM (inactive)	5.79 µM (inactive)	9.1 µM (inactive)	10.1 µM (inactive)	> 100 µM (inactive)	13.2 µM (inactive)	12.2 µM (inactive)	8.36 µM (inactive)	9.66 µM (inactive)	> 81.5 µM (inactive)
Brc1ccc2c3c1[C@@H]1O[C@@H]1c1cccc(c1-3)[C@@H]1O[C@H]21	16.5 µM (inactive)	26.9 µM (inactive)	13.1 µM (inactive)		19.6 µM (inactive)	18.6	20.9 µM (inactive)	> 39.9 µM (inactive)	> 53 µM (inactive)	18.6 µM (inactive)	16.3 µM (inactive)	13.8 µM (inactive)	24.2 µM (inactive)	19.2 µM (inactive)	17.6 µM (inactive)	27.5 µM (inactive)	39.7 µM (inactive)	29.9 µM (inactive)	27.4 µM (inactive)	23.6 µM (inactive)
O=C(CN1CCN(c2cccc(Cl)c2)CC1)N1CCc2c([nH]c3ccccc23)C1c1cccnc1 (centres undefined)	11.8 µM (inactive)	20.5 µM (inactive)	12.8 µM (inactive)	6.68 µM (inactive)	16.8 µM (inactive)	5.25	12.8 µM (inactive)	3.03 µM (inactive)	2.54 µM (inactive)		16.4 µM (inactive)	19.4 µM (inactive)	13.1 µM (inactive)	8.53 µM (inactive)	12.2 µM (inactive)	> 100 µM (inactive)				
CC[C@@]1(O)C(=O)OCc2c1cc1n(c2=O)Cc2c-1nc1ccccc1c2/C=N\NC(=O)C(N)CS (some centres undefined)	0.51 µM (active)	2.55 µM (inactive)	0.495 µM (active)		47 µM (inactive)	3.83	3.13 µM (inactive)	1.5 µM (inactive)	0.0794 µM (active)	9.59 µM (inactive)	0.733 µM (active)	1.09 µM (active)	0.186 µM (active)	0.501 µM (active)	5.5 µM (inactive)	1.91 µM (inactive)	1.66 µM (inactive)	> 100 µM (inactive)	78.9 µM (inactive)	3.52 µM (inactive)
CC1(C)C2CCC1(CS(=O)(=O)Nc1ccccc1)C(=O)C2 (centres undefined)	> 100 µM (inactive)	> 100 µM (inactive)	> 100 µM (inactive)		> 100 µM (inactive)	> 100	> 100 µM (inactive)	> 100 µM (inactive)	> 100 µM (inactive)	> 100 µM (inactive)	> 100 µM (inactive)	> 100 µM (inactive)	> 100 µM (inactive)	> 100 µM (inactive)	> 100 µM (inactive)	> 100 µM (inactive)	> 100 µM (inactive)	> 100 µM (inactive)	> 100 µM (inactive)	> 100 µM (inactive)
